Test results reported in paper PMC8605241, “Coevolution of the bacterial pheromone ComS and sensor ComR fine-tunes natural transformation in streptococci” (The Journal of Biological Chemistry, 2021).
Residues, ends and D or L forms follow the SMILES beside them.

How the values were obtained:
ComRSth WT = ComRSth WT (Streptococcus thermophilus, UniProt A0A1L1QK15); assay type: cell-based; settings: for effect of XIP-5 substitution on activation (titration of synthetic XIPSth variants): compared with XIPSth WT (A5), PcomS-luxAB; for EC50: read-out: EC50 of PcomS activity (maximum specific luciferase activity), synthetic 8-aa peptide added to S. thermophilus ΔcomS reporter strain (PcomS-luxAB), Hill fit, mean ± SD of at least three independent replicates, SD
Method: (§1) Luciferase assays were performed as previously described ([19]). Overnight precultures were diluted to a final OD600 of 0.05 and culture samples incubated in a sterile covered white microplate with a transparent bottom (Greiner). Growth and luciferase activity (expressed in relative light units [RLUs]) of the cultures were monitored after addition or in absence of synthetic XIP peptide at 10 min intervals during at least 8 h in a multiwell plate reader (Hidex Sense, Hidex). When peptides were titrated, 0, 0.78, 1.56, 3.12, 6.25, 12.5, 25, 50, 100, and 1000 nM were added to the medium.

[1] = biological target: ComRSth-StreptagII protein (Streptococcus thermophilus ComR) (Streptococcus thermophilus)
ComRSve WT = assay: PcomS-luxAB luciferase reporter assay, S. thermophilus strain with ComRSth replaced by ComRSve; assay type: cell-based, Streptococcus vestibularis; settings: reporter strain carrying ComRSve; for decrease of activation compared with wild-type XIPSve: synthetic peptide
Method: as §1

ComR-F171A = assay: PcomS-luxAB luciferase reporter assay, ComR-F171A strain; assay type: cell-based, Streptococcus thermophilus; settings: substitution added to XIP-L1A; ComR-F171A mutant strain
Method: Luciferase assays were performed as previously described ([19]). Overnight precultures were diluted to a final OD600 of 0.05 and culture samples incubated in a sterile covered white microplate with a transparent bottom (Greiner). Growth and luciferase activity (expressed in relative light units [RLUs]) of the cultures were monitored after addition or in absence of synthetic XIP peptide at 10 min intervals during at least 8 h in a multiwell plate reader (Hidex Sense, Hidex). When peptides were titrated, 0, 0.78, 1.56, 3.12, 6.25, 12.5, 25, 50, 100, and 1000 nM were added to the medium. In order to calculate EC50 values (peptide concentration for a half maximum response), maximum luciferase activity values were fitted to Hill equation: L=Lmax×[XIP]^n/(EC50)^n+[XIP]^n where L is the luciferase activity, [XIP] is the XIP concentration, and n is the Hill coefficient. Curves were fitted with the GraphPad Prism software v.9.0.1 (GraphPad Software, Inc).

[2] = biological target: FITC N-labeled XIP-A5M peptide (9 aa) (Streptococcus thermophilus); assay: fluorescence polarisation; 30 nM FITC N-labeled 9-aa XIP peptide, threefold serial dilutions of purified ComR from 1 uM, 10 min at 30 °C, 96-well plates; EC50 by Hill fit
ComRSth [3] = biological target: T1, ComRSth (Streptococcus thermophilus, UniProt A0A1L1QK15); assay: biochemical; settings: SD
Method: In the case of competition assays, a fixed concentration of ComR (250 nM) and FITC N-labeled XIP peptide (30 nM) were incubated with twofold serial dilutions of unlabeled XIP variant (initial concentration of 5 μM). Plots were fitted by using GraphPad Prisma software to calculate IC50 values (half-maximal inhibitory peptide concentration).

ComRSth [4] = biological target: T1, ComRSth; assay: Single-molecule force spectroscopy (AFM); assay type: binding; settings: polyG-linked peptide grafted on AFM tip, ComRSth on gold-coated coverslip
Method: Gold-coated glass coverslips and cantilevers (OMCL-TR4, Olympus Ltd; nominal spring constant ∼0.02 N m^−1) were immersed overnight in an ethanol solution containing 1 mM of 10% 16- […]/90% 1-mercapto-1-undecanol (Sigma), rinsed with ethanol and dried with N2. Substrates and cantilevers were then immersed for 30 min into a solution containing 10 mg ml^−1 N-hydroxysuccinimide (NHS) and 25 mg ml^−1 1-ethyl-3-(3-dimethylaminopropyl)-carbodiimide (EDC) (Sigma), rinsed with Ultrapure water (ELGA LabWater), incubated with 0.1 mg ml^−1 ComR or polyG-XIPSth, polyG-XIP-A5M, or polyG-XIPSve peptides for 1 h, rinsed further with PBS buffer, and then immediately used without dewetting.
For experiments of single-molecule force spectroscopy, ComR-functionalized surfaces and functionalized cantilevers with polyG-peptides were prepared as described above. Measurements were performed at room temperature in PBS with a Force Robot 300 AFM (JPK Instruments). Multiple (32 × 32) force–distance curves were recorded on areas of 500 by 500 nm^2 with an applied force of 250 pN, a constant approach, and retraction speed of 1000 nm s^−1. […] The spring constants of the cantilevers were measured by the thermal noise method ([50]). Data were analyzed with the data processing software from JPK Instruments.

[5] = biological target: T2, ComRSth-StreptagII protein (Streptococcus thermophilus ComR) (Streptococcus thermophilus); assay: FP; competition with FITC-XIP-A5M
T2 chain: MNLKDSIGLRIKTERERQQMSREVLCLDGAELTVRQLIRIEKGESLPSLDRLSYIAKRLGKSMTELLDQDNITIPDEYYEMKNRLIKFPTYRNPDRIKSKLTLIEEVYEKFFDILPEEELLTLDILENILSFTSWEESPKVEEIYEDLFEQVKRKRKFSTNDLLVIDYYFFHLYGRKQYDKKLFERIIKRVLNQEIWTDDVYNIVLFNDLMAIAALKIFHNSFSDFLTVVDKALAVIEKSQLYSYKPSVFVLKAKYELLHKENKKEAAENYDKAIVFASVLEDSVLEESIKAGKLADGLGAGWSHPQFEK

LPYFIGCL [XIP-A5I]
effect of XIP-5 substitution on activation (titration of synthetic XIPSth variants) (ComRSth WT; ΔcomS reporter strain): improved transcriptional activation but at a lower level than A5M

LPYFTGCL [XIP-A5T]
effect of XIP-5 substitution on activation (titration of synthetic XIPSth variants) (ComRSth WT; ΔcomS reporter strain): neutral

XIP-L1A-A5M (synthetic octapeptide)
P (comS)-luxAB luciferase reporter in S. thermophilus cells producing ComRSth WT; fold change in EC50 against the reference XIP-L1A (substitution A5M) [1]: 10.4 fold

APFFMIYY [XIPSve-V1A]
decrease of activation compared with wild-type XIPSve (ComRSve WT): ~130 fold

CSCC[C@H](NC(=O)[C@H](Cc1ccccc1)NC(=O)[C@H](Cc1ccc(O)cc1)NC(=O)[C@@H]1CCCN1C(=O)[C@@H](N)C(C)C)C(=O)NCC(=O)N[C@@H](CS)C(=O)N[C@@H](CC(C)C)C(=O)O [XIP-L1V-A5M] (H-VPYFMGCL-OH)
EC50 (ComRSth WT): 1.36 ± 0.33 nM | EC50 compared with wild-type XIPSth (ComRSth WT; synthetic peptide, ΔcomS reporter strain, PcomS as proxy): approximately fourfold lower

APYFMGCL [XIPSth-L1A-A5M]
increased activation (fold change in EC50) with XIP-L1A as reference (ComR-F171A): 1.3 fold | increased activation (fold change in EC50) with XIP-L1A (A1–A5) as reference (ComRSth WT; substitution added to XIP-L1A, ComRSth WT reporter strain): 10.4 fold

PYFAGCL [XIPSth-ΔL1]
decrease of activity (fold less active) (ComRSth WT; synthetic 7-aa peptide, ComRSth WT reporter strain): ~90 fold

PFFMIYY [XIPSve-ΔV1, 7-aa XIPSve variant PFFMIYY]
activation of ComRSve (in words) (ComRSve WT; synthetic 7-aa peptide): completely abolished

ComRSth-StreptagII protein (Streptococcus thermophilus ComR) (natural protein)
fold lower EC50 than FITC-XIPSth [2]: 2 fold

CC(C)C[C@H](NC(=O)[C@H](CS)NC(=O)CNC(=O)[C@H](C)NC(=O)[C@H](Cc1ccccc1)NC(=O)[C@H](Cc1ccc(O)cc1)NC(=O)[C@@H]1CCCN1C(=O)[C@@H](N)CC(C)C)C(=O)O [XIPSth, reference compound] (H-LPYFAGCL-OH)
IC50 (ComRSth [3]): 254 ± 49.7 nM | EC50 (ComRSth WT): 4.4 ± 1.12 nM

VPFFMIYY [XIPSve]
binding frequency / binding probability (ComRSth [4]): ~2% | median binding (adhesion) force (ComRSth [4]; PBS, room temperature, about 1000 curves per surface): 58 pN

VPFFAIYY [XIPSve-M5A]
decrease of activation compared with wild-type XIPSve (ComRSve WT): ~40 fold

LPYFAGCL [XIPSth (Streptococcus thermophilus XIP, synthetic octapeptide)]
IC50 [5]: 254 nM | P (comS)-luxAB luciferase reporter in S. thermophilus cells producing ComRSth WT; fold change in EC50 against the reference XIP-L1A (substitution A1L) [1]: 2.7 fold

PYFAGCL [XIPSth-ΔL1 (7 aa)]
P (comS)-luxAB luciferase reporter in S. thermophilus cells producing ComRSth WT; activity against XIPSth WT (fold less active) [1]: 90
